Assay results: article PMC7139703, “Thiopurine Derivative-Induced Fpg/Nei DNA Glycosylase Inhibition: Structural, Dynamic and Functional Insights” (International Journal of Molecular Sciences, 2020)

Target: T1, LlFpg/DNA complex C2 (Lactococcus lactis subsp. cremoris, UniProt P42371)
T1 construct: made in house; host or cells: E. coli BH540 (fpg defective)
T1 sequence (P42371 2-273 limits assumed): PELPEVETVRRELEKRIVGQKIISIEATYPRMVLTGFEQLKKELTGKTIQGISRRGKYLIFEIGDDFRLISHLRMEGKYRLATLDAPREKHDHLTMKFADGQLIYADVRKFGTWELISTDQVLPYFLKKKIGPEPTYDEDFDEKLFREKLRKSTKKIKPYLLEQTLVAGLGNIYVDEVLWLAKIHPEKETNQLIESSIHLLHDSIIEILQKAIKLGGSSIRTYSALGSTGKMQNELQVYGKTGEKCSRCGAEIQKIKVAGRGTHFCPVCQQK
Assay: EMSA, Fpg DNA binding to 14-mer [THF:C] duplex, non-specific complex C2 (Fpg/DNA 2/1)
Conditions: for effect on stability of preformed complex C2 in the presence of TCEP: [1/1] molar ratio TCEP/compound (1 mM each), Figure S6; for number of TXn equivalents per one protein equivalent for 50% inhibition of DNA binding activity, C2: value in parentheses, 10 nM Fpg
Source text: To complement this study, we examined the effect of TXn on the binding of Fpg to a short DNA duplex containing a tetrahydrofuran (THF), a non-cleavable AP site analog. The enzyme specifically recognizes THF and forms a stable abortive complex with DNA [18, 34, 35, 36]. […] A representative titration experiment (with and without TCEP) of the 14-mer [THF:C] Fpg formed two stable complexes with this short DNA probe that were easily observed by EMSA: a high-affinity complex C1 corresponding to the lesion recognition complex (LRC), with nanomolar affinity, and a complex C2 only observed at higher Fpg concentrations. C2 results in C1 titration by a second Fpg molecule. This finding illustrates that the crystal structure of Fpg bound to 8-oxoG-carbanucleotide-containing DNA [38] (Figure S5). The stability of each preformed complex was then examined by EMSA in the presence of 2TX or TXn. […] The enzyme inactivation mediated by 2TX through ZnF oxidation that directly affects the DNA binding properties of the enzyme is also in agreement with this last observation.
The inhibitor concentrations that induced the loss of the half-maximal binding (IC50app^B) were determined from these curves and are reported in Table 1. IC50app^B compared well with IC50app^A. As observed above for the enzyme activity, strong reducers, such as TCEP, abolished the negative effects of 2TX and TXn on Fpg/DNA complex stability and formation. These findings again indicate that inhibition by thio-compounds essentially relies on the oxidation of the Fpg ZnF (for an example, see experiment with TX19, Figure S4). […] This troubling and unexpected observation led us to evaluate this effect with the TXn small library compounds. To prevent a side effect due to a possible partial reduction by TCEP, we performed EMSA in the presence of a 6.7-fold molar excess of TCEP with respect to 2TX and TXn after complex formation (Figure 3).
Figure 3 Impact of TXn on the non-specific Fpg/DNA complex C2 stability in highly reducing conditions. EMSA was performed as described in the ‘Material & Methods’, except TCEP was added at a 2 mM final concentration in each binding assay. (a) Representative experiment at 0.3 mM 2TX and more efficient TXn; (b) Dose-response with the best TXn. Upper panel: Representative EMSA experiment with TX10. Lower panel: Dose-response curves with the indicated TXn.
The DNA binding activity was measured using EMSA [37]. Briefly, 0.1 nM of the 5′-labeled 14-mer [THF:C] (see above) was incubated with the enzyme at 4 °C for 30 min in 25 mM HEPES/NaOH (pH 7.5), 150 mM NaCl, 5% glycerol, 0.1 mg/mL BSA and 8% DMSO. The incubation mixture was then loaded onto a native 10% polyacrylamide gel (Acryl/Bis 19/1) and electrophoresed at 25 V/cm for 90 min at 4 °C. After electrophoresis, the gels were dried and exposed overnight for autoradiography using a Typhoon imager and quantified with ImageQuant software. To evaluate the inhibitor effect of 2TX/TXn on the DNA binding activity of each Fpg/Nei enzyme, we first determined the experimental conditions required to bind 50% of the DNA probes without an inhibitor in the presence of 8% DMSO (limiting enzyme concentration). Under these conditions, we obtained the half-maximal DNA binding 0.25, 7 and 5 nM of Fpg, hNeil1 and mvNei1. We used this limited enzyme concentrations to evaluate the inhibitor effect of 2TX/TXn on the enzyme DNA binding activity. This effect was determined by the addition of the thio-compound in the pre-equilibrium mixture of the enzyme and DNA probe (30 min) and incubated for an additional 30 min at 4 °C. For the best inhibitors of Fpg, a dose-response curve was established from at least three independent experiments and the IC50 was determined (IC50^B, Table 1). […]
Rieux et al. Thiopurine derivative-induced Fpg/Nei DNA glycosylase inhibition:
structural, dynamic and functional insights
Figure S6. […]

Row | Compound | effect on stability of preformed complex C2 in the presence of TCEP | number of TXn equivalents per one protein equivalent for 50% inhibition of DNA binding activity, C2
1 | O=c1[nH]c(=S)[nH]c2[nH]c(=S)[nH]c12 [TX19] | moderate effect | NA (2)
2 | FC(F)(F)c1nc(S)c2nc[nH]c2n1 [TX13, 2-trifluoromethyl-6-thiopurine] | strongly destabilized | NA (1.3)
3 | Nc1ncnc2[nH]c(S)nc12 [TX27] | strongly destabilized | NA (4)
4 | O=c1[nH]c(=S)[nH]c2nc[nH]c12 [Compound 2TX, 2-thioxanthine, reference compound] | moderate effect | NA (9.7)
5 | O=c1[nH]c2[nH]c(=S)[nH]c(=O)c2[nH]1 [TX14, 2-thio-6,8-dioxopurine] | moderate effect | NA (2.8)
